Numbering of substitutions follows the chain as printed.
Key:
Format in all cases: binding
hMETTL6 [1] = target: T1, hMETTL6 (Homo sapiens, UniProt Q8TCB7, C93S); assay: isothermal titration calorimetry
T1 construct: gene METTL6
T1 sequence (Q8TCB7 1-284 C93S): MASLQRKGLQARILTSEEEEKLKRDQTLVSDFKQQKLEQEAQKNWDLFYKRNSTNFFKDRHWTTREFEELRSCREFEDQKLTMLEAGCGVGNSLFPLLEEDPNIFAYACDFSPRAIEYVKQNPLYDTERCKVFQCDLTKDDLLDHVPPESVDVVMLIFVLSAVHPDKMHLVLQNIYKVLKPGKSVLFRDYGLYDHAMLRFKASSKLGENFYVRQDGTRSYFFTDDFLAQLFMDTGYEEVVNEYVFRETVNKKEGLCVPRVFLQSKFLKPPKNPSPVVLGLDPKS

hMETTL6 [2] = target: T2, hMETTL6 (Homo sapiens, UniProt Q8TCB7, D110A); assay: isothermal titration calorimetry; conditions: pH 8.0, 150 mM NaCl, 1 mM DTT, 25 °C; mutant partly aggregated, structural integrity disrupted
T2 construct: gene METTL6
T2 sequence (Q8TCB7 1-284 D110A): T1 sequence (Q8TCB7 1-284 C93S) with S93C, D110A

hMETTL6 [3] = target: T3, hMETTL6 (Homo sapiens, UniProt Q8TCB7); assay: isothermal titration calorimetry
T3 construct: gene METTL6
T3 sequence (Q8TCB7 1-284): T1 sequence (Q8TCB7 1-284 C93S) with S93C

hMETTL6 [4] = target: T4, hMETTL6 (Homo sapiens, UniProt Q8TCB7, F111L); assay: isothermal titration calorimetry
T4 construct: gene METTL6
T4 sequence (Q8TCB7 1-284 F111L): T1 sequence (Q8TCB7 1-284 C93S) with S93C, F111L

hMETTL6 [5] = target: T5, hMETTL6 (Homo sapiens, UniProt Q8TCB7, E85Q); assay: isothermal titration calorimetry
T5 construct: gene METTL6
T5 sequence (Q8TCB7 1-284 E85Q): T1 sequence (Q8TCB7 1-284 C93S) with E85Q, S93C

hMETTL6 [6] = target: T6, hMETTL6 (Homo sapiens, UniProt Q8TCB7, H61N); assay: isothermal titration calorimetry
T6 construct: gene METTL6
T6 sequence (Q8TCB7 1-284 H61N): T1 sequence (Q8TCB7 1-284 C93S) with H61N, S93C

hMETTL6 [7] = target: T7, hMETTL6 (Homo sapiens, UniProt Q8TCB7, Y49F); assay: isothermal titration calorimetry
T7 construct: gene METTL6
T7 sequence (Q8TCB7 1-284 Y49F): T1 sequence (Q8TCB7 1-284 C93S) with Y49F, S93C

hMETTL6 [8] = target: T3, hMETTL6; assay: X-ray crystal structure, […] Å; conditions: protein mixed with 2 mM SAH; active site; ammonium sulfate, pH 5.6

Row | Kd (hMETTL6 [1]) [µM] | Kd (hMETTL6 [3]) [µM] | Kd (hMETTL6 [4]) [µM] | Kd (hMETTL6 [5]) [µM] | Kd (hMETTL6 [6]) [µM] | Kd (hMETTL6 [7]) [µM] | Structure (SMILES) | KD (hMETTL6 [2]) | X-ray crystal structure, 1.9 Å (hMETTL6 [8])
1 | 2.25 | ~2.7 | 8.05 | 87.5 | 3.11 | 9.5 | C[S+](CC[C@H](N)C(=O)O)C[C@H]1O[C@@H](n2cnc3c(N)ncnc32)[C@H](O)[C@@H]1O (some centres unmarked) [SAM] | the D110A mutation almost eliminated the association capacity of the enzyme | 
2 |  |  |  |  |  |  | Nc1ncnc2c1ncn2[C@@H]1O[C@H](CSCC[C@H](N)C(=O)O)[C@@H](O)[C@H]1O [SAH] |  | we solved the structure of hMETTL6 in complex with SAH at a high resolution
